Experiment [1] deals with T1, baculosome-derived full-length SQLE (Homo sapiens, UniProt Q14534).
T1 construct: we overexpressed full-length SQLE in Sf9 cells using a baculovirus system; made in house; host or cells: Sf9 insect cells (baculovirus), membrane preparation (baculosomes)
Nature of the experiment: Biochemistry assay of SQLE activity with SQLE baculosomes (LC-MS/MS detection of 2,3-oxidosqualene). As to conditions: for mechanism of inhibition with respect to squalene substrate: squalene varied from 50 to 0.39 μM, fixed inhibitor concentrations. It is filed as biochemical. The procedure: pFastBac1-SQLE was transformed into DH10Bac E. coli (Thermo Fisher) for transposition into bacmid, and positive clones were selected on a blue/white LB agar plate. Recombinant bacmid as isolated from positive clones with the PureLink Hipure Plasmid DNA miniprep kit (Thermo Fisher) and transfected into Sf9 cells (Thermo Fisher) to generate recombinant virus stocks, which were amplified further before Sf9 infection at a multiplicity of infection of two. Infected cells were harvested 72 h post infection and resuspended in phosphate buffered saline, then disrupted by sonication. The cell lysate was clarified by centrifugation at 1500× g for 10 min, the supernatant was further centrifuged at 10,000× g for another 10 min to remove cell debris; and then the supernatant was harvested and centrifuged at 100,000× g for 90 min. The pellet of SQLE baculosomes was collected and homogenized in the buffer (50 mM potassium phosphate, 20% Glycerol, pH7.0) by micro-electric homogenizer (IKA Works, Germany). The protein concentration was determined by the Bradford method. SQLE baculosomes were aliquoted and stored at −80 ℃. The abundance of SQLE in the baculosomes compared to other subcellular fractions was evaluated by immunoblotting against the N-terminal his-tag. Y195A, and Y195F mutant baculosomes were prepared as described above from Sf9 cells infected with engineered viruses.
All biochemistry assay buffers contained 100 mM Tris, 0.1% triton X-100, 1 mM EDTA, 0.1 mM FAD and 1 mM NADPH. […] The reaction was quenched by adding 100 μL of 10 mM ammonium acetate buffer, followed by addition of 600 μL ethyl acetate containing 0.4 mg/mL butylated hydroxytoluene (BHT) to prevent oxidation. The mixture was vortexed for 30 min to extract 2,3-oxidosqualene, then centrifuged at 4000 rpm for 10 min. The supernatant was transferred to a new plate for LC-MS/MS detection. […] Kinetic analysis for HLMs (Sekisui Xenotech, LLC, Kansas City, KS) was performed as for baculosomes, with HLM concentration at 0.5 mg/ml. Kinetic analysis for recombinant SQLE was performed as for baculosomes, with the addition of 1.5 μg/ml recombinant P450R (Sigma-Aldrich).
Samples were dried down under nitrogen and then reconstituted with 70 μL of 0.2 mg/mL BHT in acetonitrile. An aliquot of 7.5 μL was injected into the UPLC-MS/MS system. The instrument setup consisted of an AB Sciex API-6500 Mass Spectrometer (AB Sciex, USA) equipped with a Waters UPLC Acquity (Waters, USA). The UPLC separation was performed on an ACQUITY UPLC BEH C18 (2.1 × 50 mm, 1.7 µm, Waters) at 40 ℃. Formic acid in water (0.1%, v/v, mobile phase A) and a mixture of acetonitrile and isopropanol (80:20, v/v with 0.1% formic acid, mobile phase B) were employed as the mobile phase. An isocratic elution of 98% mobile phase B was used and run time was 1.5 min. The flow rate of mobile phase was set at 0.6 mL/min.

The target in experiment [2] is T2, endogenous SQLE in human liver microsomes (Homo sapiens, UniProt Q14534).
T2 construct: human liver microsomes (HLM) which have the advantage of providing endogenous SQLE; tissue Sekisui Xenotech, LLC, Kansas City, KS; host or cells: human liver microsomes
T2 sequence (Q14534 whole entry): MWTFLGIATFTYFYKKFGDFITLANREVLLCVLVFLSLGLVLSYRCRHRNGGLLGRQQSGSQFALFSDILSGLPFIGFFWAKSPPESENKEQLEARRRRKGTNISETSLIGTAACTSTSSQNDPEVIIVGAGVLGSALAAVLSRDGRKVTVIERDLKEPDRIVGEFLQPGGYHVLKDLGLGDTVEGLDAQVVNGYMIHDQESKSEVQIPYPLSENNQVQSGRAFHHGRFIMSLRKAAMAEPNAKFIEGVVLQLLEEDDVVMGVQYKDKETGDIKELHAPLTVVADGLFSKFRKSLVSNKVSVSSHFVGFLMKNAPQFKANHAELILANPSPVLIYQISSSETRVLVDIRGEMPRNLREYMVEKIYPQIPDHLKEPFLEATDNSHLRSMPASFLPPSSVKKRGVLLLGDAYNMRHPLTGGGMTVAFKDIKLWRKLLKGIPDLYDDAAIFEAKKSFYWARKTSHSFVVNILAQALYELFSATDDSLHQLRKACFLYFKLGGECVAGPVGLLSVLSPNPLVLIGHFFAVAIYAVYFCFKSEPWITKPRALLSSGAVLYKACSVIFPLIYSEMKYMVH
Nature of the experiment: HLM assay of SQLE activity (human liver microsomes, LC-MS/MS). It is filed as biochemical. As to the method: All biochemistry assay buffers contained 100 mM Tris, 0.1% triton X-100, 1 mM EDTA, 0.1 mM FAD and 1 mM NADPH. […] The reaction was quenched by adding 100 μL of 10 mM ammonium acetate buffer, followed by addition of 600 μL ethyl acetate containing 0.4 mg/mL butylated hydroxytoluene (BHT) to prevent oxidation. The mixture was vortexed for 30 min to extract 2,3-oxidosqualene, then centrifuged at 4000 rpm for 10 min. The supernatant was transferred to a new plate for LC-MS/MS detection. […] Kinetic analysis for HLMs (Sekisui Xenotech, LLC, Kansas City, KS) was performed as for baculosomes, with HLM concentration at 0.5 mg/ml. […] (Sigma-Aldrich). […] An aliquot of 7.5 μL was injected into the UPLC-MS/MS system. The instrument setup consisted of an AB Sciex API-6500 Mass Spectrometer (AB Sciex, USA) equipped with a Waters UPLC Acquity (Waters, USA). […] Formic acid in water (0.1%, v/v, mobile phase A) and a mixture of acetonitrile and isopropanol (80:20, v/v with 0.1% formic acid, mobile phase B) were employed as the mobile phase. An isocratic elution of 98% mobile phase B was used and run time was 1.5 min. The flow rate of mobile phase was set at 0.6 mL/min.
In general terms: Liver microsomes are vesicles of endoplasmic reticulum, rich in cytochrome P450 enzymes.

The target in experiment [3] is T3, recombinant N-terminally truncated SQLE (118–574) (Homo sapiens, UniProt Q14534).
T3 construct: First, we used the recombinant N-terminally truncated SQLE (118–574); His6-MBP (TEV site) (N, cleaved yes); made in house; host or cells: Rosetta (DE3) E. coli
T3 sequence (Q14534 118-574): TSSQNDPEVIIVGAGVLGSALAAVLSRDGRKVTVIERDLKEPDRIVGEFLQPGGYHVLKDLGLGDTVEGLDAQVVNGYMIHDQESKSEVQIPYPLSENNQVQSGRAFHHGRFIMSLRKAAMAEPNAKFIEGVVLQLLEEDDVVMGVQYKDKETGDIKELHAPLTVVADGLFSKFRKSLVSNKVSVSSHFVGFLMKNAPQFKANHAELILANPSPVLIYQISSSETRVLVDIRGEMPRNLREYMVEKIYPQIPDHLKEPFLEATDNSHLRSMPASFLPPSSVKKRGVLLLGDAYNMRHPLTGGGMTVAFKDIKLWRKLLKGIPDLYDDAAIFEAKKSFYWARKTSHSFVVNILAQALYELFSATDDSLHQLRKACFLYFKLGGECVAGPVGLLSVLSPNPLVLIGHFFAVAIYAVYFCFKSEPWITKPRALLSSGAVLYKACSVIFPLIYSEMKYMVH
Nature of the experiment: Enzymatic assay with recombinant SQLE (118–574) plus recombinant P450R. As to conditions: saturating squalene, varied FAD. It is filed as biochemical. The text has this:
The cDNA of human SQLE (NCBI accession number: NM_003129.3) was cloned into pET28a expression vector (Supplementary Table 2). Multiple constructs were designed with six unique N-termini (starting at 1, 101, 111, 118, 124, 144) and four C-termini (ending at 488, 518, 543, 574), along with different affinity/solubilization tags expressed in Rosetta (DE3) E. coli (Shanghai Weidi Biotechnology). Soluble proteins were obtained for four of the expression constructs with N- and C-terminal boundaries corresponding to 101-574, 118-574, 101-488, and 118-488 and were used in crystallization trials. The His6-MBP-TEV-SQLE (118-574) construct in pET28a vector yielded crystals for structure determination. A detergent screen performed using thermal shift assay led to the identification of 3-[(3-cholamidopropyl)dimethylammonio]-1-propanesulfonate (CHAPS) as having the most stabilizing effect. CHAPS detergent was subsequently used for all extraction, purification and crystallization studies of SQLE protein. The plasmid bearing the sequence encoding SQLE was transformed into Rosetta (DE3) E. coli. Cells were grown at 37 °C and induced with 1 mM isopropyl β-D-1-thiogalactopyranoside for about 20 h at 15 °C in Luria Broth media. […] Protein was determined to be > 95% pure by SDS-PAGE and eluted as a monomer as assessed by SEC. […]

A further experiment deals with T4, SQLE (118–574) (Homo sapiens, UniProt Q14534).
T4 construct: to the N-terminally truncated SQLE (118–574), resulting in the selection of this construct for further studies; His6-MBP (TEV site) (N, cleaved yes); made in house; host or cells: Rosetta (DE3) E. coli
T4 sequence (Q14534 118-574): as above
Briefly: Thermal shift assay, N-terminally truncated SQLE (118–574). It is filed as binding. The note with it: 100 μM ligands. As to the method:
(§1) Thermal shift assays were performed in 96-well PCR plates using an RT-PCR instrument (ABI 7500 Fast, Applied Biosystems, USA). Standard assay conditions (20 μL) contain 12.5 μL protein (1 mg/mL) in storage buffer 50 mM Tris (pH 8.0), 500 mM NaCl, 5% glycerol and 100 μM corresponding ligands, 5 μL Protein Thermal Shift^TM buffer, and 2.5 μL of the ROX dye (8 × , Protein Thermal Shift^TM Dye Kit, Applied Biosystems, USA). All experiments were performed in triplicate and reaction mixtures were pre-incubated at 4 °C for 1 h. […] For the detergent screening, the SQLE protein was buffer exchanged to 500 mM NaCl, 50 mM Tris-HCl (pH 8.0) containing different detergents using Superdex^TM 200 Increase 10/300 GL gel-filtration column (GE Healthcare, USA) and assayed as described above.

The target in the next experiment is T5, SQLE (118-488) (Homo sapiens, UniProt Q14534).
T5 construct: Thermal shift assay fluorescence signals obtained for SQLE (118-488), with and without FAD; made in house; host or cells: Rosetta (DE3) E. coli
T5 sequence (Q14534 118-488): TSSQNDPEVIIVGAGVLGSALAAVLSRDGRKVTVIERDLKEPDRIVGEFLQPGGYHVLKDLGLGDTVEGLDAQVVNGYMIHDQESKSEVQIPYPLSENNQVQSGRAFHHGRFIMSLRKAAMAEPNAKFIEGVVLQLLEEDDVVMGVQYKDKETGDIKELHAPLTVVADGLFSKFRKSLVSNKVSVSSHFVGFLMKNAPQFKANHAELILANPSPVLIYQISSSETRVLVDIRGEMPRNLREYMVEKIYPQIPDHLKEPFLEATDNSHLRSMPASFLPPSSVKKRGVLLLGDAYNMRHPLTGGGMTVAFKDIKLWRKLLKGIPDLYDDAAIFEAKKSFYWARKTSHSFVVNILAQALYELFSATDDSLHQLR
Briefly: Thermal shift assay, SQLE (118-488). It is filed as binding. The note with it: 100 μM ligands. As to the method:
as §1

The test system of the next experiment is human SQLE. The note with it: cited from earlier work; for IC50: previously reported.
[4] abbreviates: baculosome-derived SQLE, 1 h pre-incubation, 100 μM squalene, read-out: IC50.
Where [5] appears, read: IC50, time-dependent inhibition, before increasing incubation time, compound incubation time varied from 0 to 6 h, starting value, 15 min reaction.
Where [6] appears, read: compound incubation time varied from 0 to 6 h.

We go through six molecules from publication PMC6327030 (Nature Communications, 2019).

By IC50 is commonly meant the concentration that inhibits the measured activity by half. For orientation: Km means the concentration of substrate that gives half-maximal velocity. As a reminder, the ΔTm is the change in melting temperature against a reference sample. The inhibition is the drop in the measured response relative to a control, in per cent.

Read-outs that look alike come from different tables or passages of the source.

T1 sequence (Q14534 whole entry): as the sequence (Q14534 whole entry) above

Regarding `CCN(C/C=C/C#CC(C)(C)C)Cc1cccc(OCc2cc(-c3ccccc3)cs2)c1` [NB-598.ia], the IC50 in experiment [1] (setting [4]) was over 100000 nM.

Consider `CCN(CC#CC#CC(C)(C)OC)Cc1cccc(OC[Si](C)(C)c2cccc(C)c2)c1` [Cmpd-4′′.ia], for which, in experiment [1] (setting [4]), the IC50 was over 100000 nM.

As for `Cc1cc2nc3c(=O)[nH]c(=O)nc-3n(C[C@H](O)[C@H](O)[C@H](O)COP(=O)(O)OP(=O)(O)OC[C@H]3O[C@@H](n4cnc5c(N)ncnc54)[C@H](O)[C@@H]3O)c2cc1C` [FAD, flavin adenosine dinucleotide], the Km is 8.1 ± 0.6 µM in experiment [1] (SQLE baculosome, saturating squalene, varied FAD); 9.6 ± 0.5 µM in experiment [2] (HLMs, saturating squalene, varied FAD); 5.2 ± 0.5 µM in experiment [3]. Also, the ΔTm was found to be 2.1 °C at SQLE (118–574) (Supplementary Figure 1c) and 4.7 °C on SQLE (118-488) (Supplementary Figure 1c). Also, the “mean Tm” value at SQLE (118–574) (control Tm 48.0) was determined as 50.1 °C; on SQLE (118-488) (control Tm 44.0), 48.7 °C.

On to `CCN(CC#CC#CC(C)(C)OC)Cc1cccc(OC[Si](C)(C)c2ccccc2C)c1` [Cmpd-4′′], for which the results for the IC50 (in experiment [1] (setting [5]); in experiment [1] (setting [4]); in the experiment with human SQLE) were 800 nM, 69 nM and 10 to 60 nM, respectively. Further, the “time dependence of inhibition” value in experiment [1] (setting [6]) is given as “time-dependent inhibition”. The “mechanism of inhibition with respect to squalene substrate” value in experiment [1] is reported as “non-competitive inhibition”.

As to `CCN(C/C=C/C#CC(C)(C)C)Cc1cccc(OCc2cc(-c3ccsc3)cs2)c1` [NB-598], the IC50 in experiment [1] (setting [5]) is 120 nM; in experiment [1] (IC50, time-dependent inhibition, upon increasing incubation time, compound incubation time varied from 0 to 6 h, final value, 15 min reaction), 30 nM; in experiment [1] (setting [4]), 63 nM; with human SQLE, 10 to 60 nM. For the same molecule, the “time dependence of inhibition” value in experiment [1] (setting [6]) is reported as “time-dependent inhibition”. Further, the “mechanism of inhibition with respect to squalene substrate” value in experiment [1] is on record as “non-competitive inhibition”. In addition, the “mechanism of action (previous report)” value in the experiment with human SQLE is “competitive”.

Take `CN(C/C=C/C#CC(C)(C)C)Cc1cccc2ccccc12` [terbinafine]: the inhibition at 100 µM in experiment [2] (HLM assay, at 100 µM inhibitor concentration, read-out: maximal inhibition) amounted to 65%.
